Measured values reported in patent US9029518B2, “Method of extracting kaempferol-based antioxidants from Solenostemma arghel” (priority 2012, dated 2015).

Key:
[1] = tested on: carrageenan-induced rat paw edema; experiment: Carrageenan-induced rat paw edema (anti-inflammatory); format: in vivo
From the text: The total alcohol (ethanol) extract was given at doses of 0.25, 0.5 and 1 g/kg, respectively, and fractions were given in doses of 0.25 g/kg. […]

[2] = tested on: acetic acid-induced writhes in mice; experiment: Acetic acid-induced writhes in mice (peripheral analgesic activity); format: in vivo
[3] = tested on: response of mice to hot plate thermal stimulation; experiment: Hot plate test (central analgesic activity); format: in vivo; conditions: for Latency (mean latency time until licking or jumping): time 0 min, hot plate 55° C.; for central analgesic activity compared with methamizol 0.05 g/kg: total ethanol extract 0.25, 0.5 and 1 g/kg, fractions 0.25 g/kg, C1 and C2 0.1 g/kg, I.P.
Protocol: The total alcoholic extract was given at doses of 0.25, 0.5 and 1.0 g/kg, respectively, fractions were given at doses of 0.25 g/kg, and compounds were given at doses of 0.1 g/kg. The effect of the alcoholic extract, fractions and isolated compounds are shown in FIGS. 3A, 3B and 3C, respectively, and given below in Table 3.
FIGS. 3A, 3B and 3C graphically illustrate the mean latency time (in seconds) until licking or jumping. This was recorded with mice being placed in a glass beaker, which was placed on a hot plate, which was maintained at 55° C. Measurements were taken 20, 60 and 90 minutes, respectively, after intraperitoneal injection of fractions (0.25 g/kg) and the isolated compounds (0.1 g/kg) from Solenostemma arghel, compared with the control group and methamizol.
This effect started after 20 min. and persisted for 90 min. after I.P. administration of the extracts.

[4] = DPPH free radical scavenging activity; format: biochemical
Protocol: The antipyretic activity was estimated using Brewer's yeast-induced hyperpyrexia in rats. Both water and total alcohol extracts were separately given orally at doses of 0.25, 0.5 and 1.0 g/kg, respectively. The antioxidant activity was evaluated using 2,2-diphenyl-1-picrylhydrazyl (DPPH) free radical scavenging activity. A 0.05 ml sample of the test compound was added to a methanol solution of DPPH (100 μM 2.95 ml) dissolved in methanol. The compound was added at different concentrations of 2, 4, 6, 8 and 10 mg/ml, respectively, as well as for water, and the total ethanol extracts and fractions. Concentrations of 1, 2, 3, 4 and 5 mg/ml were used for C1 and C2. Equal amounts of methanol were added to the control. Absorbance was recorded at 517 nm at regular intervals of 15 s for 5 min. Ascorbic acid (100 μM) was used as a standard.
The results are shown in Table 4 below, and in FIGS. 4A and 4B.
With regard to antioxidant activity (in vitro), all extracts were tested at concentrations of 2, 4, 6, 8 and 10 mg/ml.

Structure (SMILES): O=c1c(O[C@@H]2O[C@H](CO)[C@@H](O)[C@H](O)[C@H]2O)c(-c2ccc(O[C@@H]3O[C@H](CO)[C@@H](O)[C@H](O)[C@H]3O)cc2)oc2cc(O)cc(O)c12 [C1, kaempferol-3, 4′-diglucoside]
- % inhibition of control ([1]; dose 0.1 g/kg oral, time 1 h): 59.06%
- % inhibition of control ([1]; dose 0.1 g/kg oral, time 2 h): 71.31%
- % inhibition of control ([1]; dose 0.1 g/kg oral, time 3 h): 53.93%
- % Protection of control ([2]; dose 0.1 g/kg oral): 59.02%
- Latency (mean latency time until licking or jumping) ([3]; dose 0.1 g/kg I.P.): 5.50 ± 0.85 s
- central analgesic activity compared with methamizol 0.05 g/kg [3]: significantly (P<0.05) greater than that of methamizol
- Radical scavenging activity (%) ± S.D. ([4]; concentration 1 mg/ml): 26.51 ± 1.01%
- Radical scavenging activity (%) ± S.D. ([4]; concentration 2 mg/ml): 37.94 ± 0.98%
- Radical scavenging activity (%) ± S.D. ([4]; concentration 3 mg/ml): 52.63 ± 0.99%
- Radical scavenging activity (%) ± S.D. ([4]; concentration 4 mg/ml): 67.72 ± 1.12%
- Radical scavenging activity (%) ± S.D. ([4]; concentration 5 mg/ml): 83.40%

Structure (SMILES): C[C@H]1O[C@H](OC[C@H]2O[C@@H](Oc3c(-c4ccc(O)cc4)oc4cc(O)cc(O)c4c3=O)[C@H](O)[C@@H](O)[C@@H]2O)[C@@H](O)[C@@H](O)[C@@H]1O [C2, kaempferol-3-rutinoside]
- % inhibition of control ([1]; dose 0.1 g/kg oral, time 1 h): 62.50%
- % inhibition of control ([1]; dose 0.1 g/kg oral, time 2 h): 70.02%
- % inhibition of control ([1]; dose 0.1 g/kg oral, time 3 h): 53.60%
- % Protection of control ([2]; dose 0.1 g/kg oral): 68.90%
- Latency (mean latency time until licking or jumping) ([3]; dose 0.1 g/kg I.P.): 5.80 ± 0.79 s
- central analgesic activity compared with methamizol 0.05 g/kg [3]: significantly (P<0.05) greater than that of methamizol
- Radical scavenging activity (%) ± S.D. ([4]; concentration 1 mg/ml): 30.28 ± 1.10%
- Radical scavenging activity (%) ± S.D. ([4]; concentration 2 mg/ml): 39.64 ± 0.88%
- Radical scavenging activity (%) ± S.D. ([4]; concentration 3 mg/ml): 65.30 ± 0.98%
- Radical scavenging activity (%) ± S.D. ([4]; concentration 4 mg/ml): 70.12 ± 1.01%
- Radical scavenging activity (%) ± S.D. ([4]; concentration 5 mg/ml): 86.50%

Structure (SMILES): O=C(O)Cc1ccccc1Nc1c(Cl)cccc1Cl [Diclofenac sodium, diclofenac sodium, reference compound]
- % inhibition of control ([1]; dose 0.03 g/kg, time 0 h (so in the source)): 30.24%
- % inhibition of control ([1]; dose 0.03 g/kg, time 2 h): 48.42%
- % inhibition of control ([1]; dose 0.03 g/kg, time 3 h): 54.69%

Structure (SMILES): Cc1c(N(C)CS(=O)(=O)[O-])c(=O)n(-c2ccccc2)n1C.[Na+] [Methamizol, methamizol, reference compound]
- % Protection of control ([2]; dose 0.05 g/kg): 52.32%
- Latency (mean latency time until licking or jumping) ([3]; dose 0.05 g/kg): 5.26 ± 0.94 s

Structure (SMILES): O=C1O[C@H]([C@@H](O)CO)C(O)=C1O [ascorbic acid, reference compound]
- scavenging activity towards DPPH radicals ([4]; concentration 100 μM (standard)): 87.8%
